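Growth conditions: 96-well plates. Treatment: test compound, 48 hours, 5 concentrations. Analysis: linear interpolation between bracketing concentrations; unreached endpoints set to highest concentration. TGI: total growth inhibition.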
Assays:
Assay in all cases: NCI-60 cell line screen, 48 h
SF-295 CNS = system: SF-295 CNS
CCRF-CEM leukemia = system: CCRF-CEM leukemia
M14 melanoma = system: M14 melanoma
786-0 renal = system: 786-0 renal
HL-60(TB) leukemia = system: HL-60(TB) leukemia
T-47D breast = system: T-47D breast
NCI-H23 lung = system: NCI-H23 lung
COLO 205 colon = system: COLO 205 colon
OVCAR-8 ovarian = system: OVCAR-8 ovarian
TK-10 renal = system: TK-10 renal
MALME-3M melanoma = system: MALME-3M melanoma
SN12C renal = system: SN12C renal
K-562 leukemia = system: K-562 leukemia
SK-MEL-28 melanoma = system: SK-MEL-28 melanoma
NCI-H460 lung = system: NCI-H460 lung
IGROV1 ovarian = system: IGROV1 ovarian
U251 CNS = system: U251 CNS
RPMI-8226 leukemia = system: RPMI-8226 leukemia
LOX IMVI melanoma = system: LOX IMVI melanoma

SMILES	TGI (SF-295 CNS)	TGI (CCRF-CEM leukemia)	TGI (M14 melanoma)	TGI (786-0 renal)	TGI (HL-60(TB) leukemia)	TGI (T-47D breast)	TGI (NCI-H23 lung)	TGI (COLO 205 colon)	TGI (OVCAR-8 ovarian)	TGI (TK-10 renal)	TGI (MALME-3M melanoma)	TGI (SN12C renal)	TGI (K-562 leukemia)	TGI (SK-MEL-28 melanoma)	TGI (NCI-H460 lung)	TGI (IGROV1 ovarian)	TGI (U251 CNS)	TGI (RPMI-8226 leukemia)	TGI (LOX IMVI melanoma)
O=C1N(c2ccccc2)C(=S)/C(=C/c2ccc(Cl)cc2)N1c1ccc(Cl)cc1	> 100 µM	61.1 µM	> 100 µM	64.2 µM	74.4 µM	> 100 µM	> 100 µM	> 100 µM	> 100 µM	89.8 µM	63.9 µM	> 100 µM	> 100 µM	> 100 µM	> 100 µM	> 100 µM	96.6 µM	52.5 µM	76.5 µM
CC(C)c1ccc(/C=C2\CSCC3=C2N=C2SCC(=O)N2C3c2ccc(C(C)C)cc2)cc1 (stereo unspecified)	> 100 µM	> 100 µM	> 100 µM	> 100 µM	> 100 µM	> 100 µM	> 100 µM	> 100 µM	> 100 µM	> 100 µM	> 100 µM	> 100 µM	> 100 µM	> 100 µM	> 100 µM	> 100 µM	> 100 µM	> 100 µM	> 100 µM
CC(C)NC(=O)OCc1c(COC(=O)NC(C)C)c(-c2cc[n+](COC(=O)C3CCCCC3)cc2)n2c1CCC2	> 100 µM	> 100 µM	> 100 µM	> 100 µM	> 100 µM	> 100 µM	> 100 µM	> 100 µM	> 100 µM	> 100 µM	> 100 µM	> 100 µM	> 100 µM	> 100 µM	> 100 µM	> 100 µM	> 100 µM	> 100 µM	> 100 µM
CCOC(=O)CCC(NC(=O)c1ccc(Nc2nc3ccccc3nc2C(=O)OCC)cc1)C(=O)OCC (stereo unspecified)	23 µM	> 100 µM	> 100 µM	3.46 µM	> 100 µM	7.06 µM	17.8 µM	> 100 µM	7.97 µM	6.43 µM	26.3 µM	> 40.7 µM	> 100 µM	> 100 µM	> 100 µM	9.2 µM	9.66 µM	> 100 µM	> 41.5 µM
COC1CC(OC2C(C)OC(OC3C(C)OC(OC4C(C)OC(O[C@H]5CC[C@@]6(C)C(=CC[C@]7(O)[C@@H]6C[C@@H](O)[C@@]6(C)[C@]7(O)CC[C@@]6(O)C(C)=O)C5)CC4OC)CC3OC)CC2OC)OC(C)C1O (stereo partly specified)	> 12.5 µM	> 12.5 µM	> 12.5 µM	> 12.5 µM	> 12.5 µM	> 12.5 µM	> 12.5 µM	> 12.5 µM	> 12.5 µM	> 12.5 µM	> 12.5 µM	> 12.5 µM	> 12.5 µM	> 12.5 µM	–	> 12.5 µM	> 12.5 µM	> 12.5 µM	> 12.5 µM
N#Cc1nc(/C=C/c2cccnc2)oc1N	> 100 µM	> 100 µM	> 100 µM	> 100 µM	> 100 µM	> 100 µM	> 100 µM	> 100 µM	–	> 100 µM	> 100 µM	> 100 µM	> 100 µM	> 100 µM	> 100 µM	> 100 µM	> 100 µM	> 100 µM	> 100 µM
CC(=O)c1sc2[n+](c1C)C(=O)/C(=C\c1ccccc1Cl)S2	33 µM	91 µM	40 µM	38.2 µM	39 µM	36.2 µM	38.5 µM	28 µM	77.5 µM	57.3 µM	32.4 µM	78.8 µM	80.6 µM	31.1 µM	30.2 µM	33.8 µM	30.5 µM	49.3 µM	35.8 µM
CN(C)CCNC(=O)c1c(O)ccc2c1c1c(n2CCc2ccccc2)C(=O)c2ccccc2C1=O	15.9 µM	6.43 µM	3.47 µM	11.3 µM	18.1 µM	8.5 µM	28.8 µM	34.4 µM	23.4 µM	18.4 µM	9.35 µM	20 µM	6.07 µM	4.57 µM	11.4 µM	21.8 µM	13.9 µM	11.6 µM	6.93 µM
CC[C@@]1(O)C(=O)OCc2c1cc1n(c2=O)Cc2c-1nc1ccccc1c2/C=N\NC(=O)C(N)Cc1c[nH]c2ccccc12 (stereo partly specified)	4.76 µM	3.44 µM	8.77 µM	> 21.7 µM	12.1 µM	> 100 µM	5.42 µM	> 100 µM	25 µM	> 100 µM	> 48.9 µM	> 95.3 µM	> 100 µM	> 100 µM	6.42 µM	> 81.5 µM	5.16 µM	17.3 µM	3.27 µM
COC(=O)c1ccc(NCC2=C(Br)C(=O)C=CC2=O)cc1Cl	> 100 µM	> 100 µM	32.1 µM	26.1 µM	> 100 µM	38.6 µM	45.8 µM	31.6 µM	47.1 µM	30.9 µM	28.4 µM	30.1 µM	> 100 µM	33.6 µM	32.2 µM	30.5 µM	43.6 µM	> 100 µM	28.1 µM
CC(=O)NC1C(OCc2ccccc2)OC(CO)C(O)C1OCC(=O)N[C@@H](C)C(=O)N[C@H](CCC(=O)NCCCNc1ccc([N+](=O)[O-])c2[nH]c3ccccc3c(=O)c12)C(N)=O (stereo partly specified)	> 100 µM	> 100 µM	> 100 µM	> 100 µM	> 100 µM	> 100 µM	> 100 µM	> 100 µM	> 100 µM	> 100 µM	> 100 µM	> 100 µM	> 100 µM	> 100 µM	> 100 µM	> 100 µM	> 100 µM	> 100 µM	> 100 µM
CN1CCN([C@H]2C[C@H]3[C@@H]4CC=C5C[C@@H](O)CC[C@]5(C)[C@H]4CC[C@]3(C)[C@H]2O)CC1	> 100 µM	57.1 µM	33.9 µM	32.1 µM	39.7 µM	> 77.8 µM	> 100 µM	> 100 µM	> 57.1 µM	> 100 µM	> 58.1 µM	> 100 µM	39.7 µM	> 57.3 µM	> 59.2 µM	> 100 µM	32.8 µM	50.6 µM	> 57.3 µM
